Like-named read-outs stand apart in the source and are kept apart here.
Experiments:
[1] = tested on: HeLa cells; test: Cell viability of HeLa cells treated with Peloruside analogs; format: cell-based, human; settings: 10 to 1000 nM
Description: (§1) Cells were treated with medium, DMSO, LX3111 or LX3136 at a final concentration of 10, 50, 100, 200, 300, 400, 500, 600, 800 or 1000 nM. Cell viability was measured by counting surviving cells or measuring luminescence at 48 hours after drug treatment using the Cell Titer-Glo Luminescent Cell Viability Assay (Promega).

[2] = tested on: SK-MEL-5 cells; test: Cell viability of SK-MEL-5 cells treated with Peloruside analogs; format: cell-based, human; settings: SK-MEL-5, 10 to 1000 nM
Description: as §1

[3] = tested on: HeLa; test: Growth of cultured human tumor cell line HeLa; format: cell-based; settings: up to 10 μM
[4] = tested on: SK-MEL-5; test: Growth of cultured human tumor cell line SK-MEL-5; format: cell-based; settings: SK-MEL-5, up to 10 μM
[5] = tested on: Tubulin, purified from bovine brains; test: Tubulin polymerization in vitro; format: biochemical
Description: Tubulin, purified from bovine brains and prepared in PEM-buffer (80 mM PIPES, 0.5 mM MgCl2, 1 mM EGTA, pH 6.9) was thawed under vacuum on ice. Tubulin was incubated at 37° C. until almost melted and resuspended to a final concentration of 2 mg/ml and placed on ice. Peloruside A or Taxol® was added into transparent 96-well plates (Coming Incorp. Costar) and placed on ice. GTP (Sigma) was added to a final concentration of 1 mM. The 96 well plate was warmed to 37° C. and 120 μl of tubulin solution was added into each well. The absorbance of the reaction at 340 nm over time (each 40-50 sec.) was measured on the spectrophotometer TECAN SPECTRAFluor Plus. Peloruside A or Taxol® was added to the tubulin at a final concentration of 5 or 10 μM.

Compound	inhibition of cell growth (antimitotic activity) [1]	inhibition of cell growth (antimitotic activity) [2]	effect on the growth of cultured human tumor cell line [3]	effect on the growth of cultured human tumor cell line ([3]; listed as (−)-Peloruside A)	effect on the growth of cultured human tumor cell line [4]	effect on the growth of cultured human tumor cell line ([4]; listed as (−)-Peloruside A)	polymerization of tubulin dimers into microtubule polymers (microtubule-stabilizing activity) [5]	polymerization of tubulin dimers into microtubule polymers (microtubule-stabilizing activity) ([5]; listed as (−)-Peloruside A)
CC[C@H](/C=C(/C)C1C[C@H](OC)CC(O)C(C)(C)C2(O)OC(C[C@@H](OC)C2O)C[C@@H](OC)[C@H](O)C(=O)O1)CO (stereo partly shown) [LX3111]	potent antimitotic activity	potent antimitotic activity	–	–	–	–	–	–
(−)-Peloruside A [Compound 40]	–	–	no effect on the growth	inactive	no effect on the growth	inactive	did not polymerize tubulin dimers into microtubule polymers	biologically inactive
CC[C@H](/C=C(/C)C1C[C@@H](OC)CC(O)C(C)(C)C2(O)OC(C[C@@H](OC)C2O)C[C@@H](OC)[C@H](OCOC)C(=O)O1)CO (stereo partly shown) [LX3136]	potent antimitotic activity	potent antimitotic activity	–	–	–	–	–	–
